From patent publication US9115086B2, “Therapeutic compositions and related methods of use” (AGIOS PHARMACEUTICALS, INC., priority 2009, dated 2015)

Target: T1, PKM2 (Homo sapiens, UniProt P14618)
T1 construct: PKM2 stock enzyme solution was diluted in Reaction Buffer
Experiment: PKM2 Assay (activation, LDH-coupled NADH absorbance at 340 nm)
Type: biochemical
Conditions: activation of PKM2
Procedure: • PKM2 stock enzyme solution was diluted in Reaction Buffer • 2 μL of compound was added into each well first, and then 180 μL of the Reaction Mix was added. • Reaction mixture with compound (without ADP) were incubated for 30 minutes at 4° C. • Plates were re-equilibrated to room temperature prior to adding 20 μL ADP to initiate the reaction. • Reaction progress was measured as changes in absorbance at 340 nm wavelength at room temperature (25° C.) Reaction Mix: PKM2 (50 ng/well), ADP (0.7 mM), PEP (0.15 mM), NADH (180 μM), LDH (2 units) in Reaction Buffer Reaction Buffer: 100 mM KCl, 50 mM Tris pH 7.5, 5 mM MgCl2, 1 mM DTT, 0.03% BSA.

T1 sequence (P14618 whole entry): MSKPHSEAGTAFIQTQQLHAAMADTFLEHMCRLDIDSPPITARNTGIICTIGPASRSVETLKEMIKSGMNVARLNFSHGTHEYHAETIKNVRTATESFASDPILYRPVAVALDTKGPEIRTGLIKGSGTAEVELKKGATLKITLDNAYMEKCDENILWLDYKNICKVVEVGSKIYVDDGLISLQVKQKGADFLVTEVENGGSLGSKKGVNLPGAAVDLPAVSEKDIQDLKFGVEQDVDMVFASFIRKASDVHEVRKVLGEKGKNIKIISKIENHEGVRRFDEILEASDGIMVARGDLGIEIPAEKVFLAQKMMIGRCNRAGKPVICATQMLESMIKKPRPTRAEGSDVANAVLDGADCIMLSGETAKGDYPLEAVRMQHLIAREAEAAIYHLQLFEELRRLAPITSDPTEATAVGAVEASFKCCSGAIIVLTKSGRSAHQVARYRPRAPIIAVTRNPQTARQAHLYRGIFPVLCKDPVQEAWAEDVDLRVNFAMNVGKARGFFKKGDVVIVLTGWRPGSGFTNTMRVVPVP

`O=C(COc1ccc(-n2cnnn2)cc1)N1CCN(S(=O)(=O)c2ccc(F)cc2)CC1` and `O=C(COc1ccc(-n2cnnn2)cc1)N1CCN(S(=O)(=O)c2ccccc2)CC1` cannot be ordered by EC50: under 10 µM for the first, under 10 µM for the second.

`O=C(COc1ccccc1)N1CCN(S(=O)(=O)c2ccc(F)cc2)CC1` and `O=C(COc1ccccc1)N1CCN(S(=O)(=O)c2ccccc2)CC1` cannot be ordered by EC50: under 10 µM for the first, under 10 µM for the second.

`CN1C(=O)C(=O)c2cc(S(=O)(=O)N3CCN(C(=O)COc4ccccc4)CC3)ccc21` and `CN1C(=O)COc2ccc(S(=O)(=O)N3CCN(C(=O)COc4ccccc4)CC3)cc21` fall in the same range of EC50: 10 to 100 µM for the first, 10 to 100 µM for the second.

`O=C(COc1cccnc1)N1CCN(S(=O)(=O)c2ccc3ccccc3c2)CC1` and `O=C(COc1ccccc1)N1CCN(S(=O)(=O)c2ccc3ccccc3c2)CC1` cannot be ordered by EC50: under 10 µM for the first, under 10 µM for the second.

`O=C(CCc1ccc(C(F)(F)F)cc1)N1CCN(S(=O)(=O)c2ccc3ccccc3c2)CC1` and `O=C(Cc1ccc(C(F)(F)F)cc1)N1CCN(S(=O)(=O)c2ccc3ccccc3c2)CC1` cannot be ordered by EC50: under 10 µM for the first, under 10 µM for the second.

`O=C(C1CC1c1ccc(C(F)(F)F)cc1)N1CCN(S(=O)(=O)c2ccc3ccccc3c2)CC1` (stereo not drawn) and `O=C(C1CC1c1ccc(C(F)(F)F)cc1)N1CCN(S(=O)(=O)c2ccc3c(c2)OCCO3)CC1` (stereo not drawn) cannot be ordered by EC50: under 10 µM for the first, under 10 µM for the second.

`O=C(CSc1ccc(Cl)cc1Cl)N1CCN(S(=O)(=O)c2ccc3ccccc3c2)CC1` and `Cc1ccc(SCC(=O)N2CCN(S(=O)(=O)c3ccc4ccccc4c3)CC2)cc1` cannot be ordered by EC50: under 10 µM for the first, under 10 µM for the second.

`O=C(OCc1ccccc1)N1CCN(S(=O)(=O)c2ccc3ccccc3c2)CC1` and `O=C(COCc1ccccc1)N1CCN(S(=O)(=O)c2ccc3ccccc3c2)CC1` cannot be ordered by EC50: under 10 µM for the first, under 10 µM for the second.

`O=C(C1CCCCC1)N1CCN(S(=O)(=O)c2cccc(C(F)(F)F)c2)CC1` and `O=C(C1CCCCC1)N1CCN(S(=O)(=O)c2ccc3ccccc3c2)CC1` cannot be ordered by EC50: under 10 µM for the first, under 10 µM for the second.

`COC(=O)c1ccc(OCC(=O)N2CCN(S(=O)(=O)c3ccc4ccccc4c3)CC2)cc1` and `COc1ccc(OCC(=O)N2CCN(S(=O)(=O)c3ccc4ccccc4c3)CC2)cc1` cannot be ordered by EC50: under 10 µM for the first, under 10 µM for the second.

`O=C(CNc1ccccc1)N1CCN(S(=O)(=O)c2ccc3ccccc3c2)CC1` and `O=C(CCc1ccccc1)N1CCN(S(=O)(=O)c2ccc3ccccc3c2)CC1` cannot be ordered by EC50: under 10 µM for the first, under 10 µM for the second.

Going from `O=C(C1CC1c1ccc(C(F)(F)F)cc1)N1CCN(S(=O)(=O)c2cc(C3CC3)cc(C(F)(F)F)c2)CC1` (stereo not drawn) to `O=C(Cc1ccc(C(F)(F)F)cc1)N1CCN(S(=O)(=O)c2cc(C(F)(F)F)cc(C(F)(F)F)c2)CC1`, the EC50 rises from under 10 µM to over 100 µM. The first is the more potent here.

Compared with `O=C(COc1ccc(-n2cnnn2)cc1)N1CCN(S(=O)(=O)c2cccc3cccnc23)CC1`, `O=C(COc1ccc(-n2cnnn2)cc1)N1CCN(S(=O)(=O)c2cccc3ccccc23)CC1` is lower in EC50: 10 to 100 µM for the first, under 10 µM for the second. The second is the more potent here.

First: O=C(COc1ccc(-n2cnnn2)cc1)N1CCN(S(=O)(=O)c2c(F)cccc2F)CC1
Second: COc1ccc(Cl)cc1S(=O)(=O)N1CCN(C(=O)COc2ccc(-n3cnnn3)cc2)CC1
The EC50 of the first is lower: under 10 µM for the first, 10 to 100 µM for the second.

`O=C(CC1CC1)N1CCN(S(=O)(=O)c2ccc3ccccc3c2)CC1` and `O=C(CSc1ccc(F)cc1)N1CCN(S(=O)(=O)c2ccc3ccccc3c2)CC1` cannot be ordered by EC50: under 10 µM for the first, under 10 µM for the second.

First: O=C(Cc1ccc(C(F)(F)F)cc1)N1CCN(S(=O)(=O)c2cc(Cl)cc(Cl)c2)CC1
Second: O=C(Cc1ccc(C(F)(F)F)cc1)N1CCN(S(=O)(=O)c2cccc3ccccc23)CC1
The EC50 of the first is higher: 10 to 100 µM for the first, under 10 µM for the second. The second is the more potent here.

First: O=C(COc1ccc(-n2cnnn2)cc1)N1CCN(S(=O)(=O)c2cccn2-c2ncc(C(F)(F)F)cc2Cl)CC1
Second: O=C(COc1ccc(-n2cnnn2)cc1)N1CCN(S(=O)(=O)c2ccc3ccccc3c2)CC1
The EC50 of the first is higher: 10 to 100 µM for the first, under 10 µM for the second.

`Cc1cc(C)cc(OCC(=O)N2CCN(S(=O)(=O)c3ccc4ccccc4c3)CC2)c1` and `Cc1ccc(OCC(=O)N2CCN(S(=O)(=O)c3ccc4ccccc4c3)CC2)cc1` cannot be ordered by EC50: under 10 µM for the first, under 10 µM for the second.

Compared with `O=C(COc1ccc(C(F)(F)F)cc1)N1CCN(S(=O)(=O)c2ccc3c(c2)OCCO3)CC1`, `O=C(COc1ccccc1)N1CCN(S(=O)(=O)c2cccc3ccccc23)CC1` is lower in EC50: over 100 µM for the first, under 10 µM for the second.

`O=C(OCc1cccnc1)N1CCN(S(=O)(=O)c2ccc3ccccc3c2)CC1` and `O=C(OCc1ccccc1)N1CCN(S(=O)(=O)c2ccccc2)CC1` cannot be ordered by EC50: under 10 µM for the first, under 10 µM for the second.

Compared with `CC(C)(C)OCC(=O)N1CCN(S(=O)(=O)c2ccc3sc(=O)sc3c2)CC1`, `O=C(COc1ccccc1)N1CCN(S(=O)(=O)c2cccc3cccnc23)CC1` is lower in EC50: 10 to 100 µM for the first, under 10 µM for the second. The second is the more potent here.
